Results as given in PubChem BioAssay (NCI).
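Protocol summary: plate cells (96-well), add compound at 5 concentrations, incubate 48 h, interpolate endpoints linearly. TGI denotes the concentration required for complete inhibition of growth.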

How the values were obtained:
Assay in all cases: growth of human tumour cells (NCI), 48 h
[1] = tested on: SNB-75 CNS
[2] = tested on: UACC-62 melanoma
[3] = tested on: LOX IMVI melanoma
[4] = tested on: CCRF-CEM leukemia
[5] = tested on: OVCAR-3 ovarian
[6] = tested on: SK-MEL-28 melanoma
[7] = tested on: MDA-MB-435
[8] = tested on: NCI-H522 lung
[9] = tested on: SN12C renal
[10] = tested on: HT29 colon
[11] = tested on: HCT-15 colon
[12] = tested on: HL-60(TB) leukemia
[13] = tested on: NCI-H226 lung
[14] = tested on: SK-MEL-2 melanoma
[15] = tested on: HCC-2998 colon
[16] = tested on: OVCAR-5 ovarian
[17] = tested on: U251 CNS
[18] = tested on: SR leukemia
[19] = tested on: 786-0 renal
[20] = tested on: SW-620 colon

Measured: TGI

COc1ccc([C@]23CCN(S(=O)(=O)c4ccc(C)cc4)[C@H]2[C@H](CO)C2(CC3)OCC(C)(C)CO2)cc1OC
> 100 µM: all assays above
